One may read the inhibition as how much of the control response was suppressed.

Experiment [1] concerns the target T1, human recombinant type II PLA2 (synovial PLA2) (Homo sapiens, UniProt P14555).
T1 sequence (P14555 21-144): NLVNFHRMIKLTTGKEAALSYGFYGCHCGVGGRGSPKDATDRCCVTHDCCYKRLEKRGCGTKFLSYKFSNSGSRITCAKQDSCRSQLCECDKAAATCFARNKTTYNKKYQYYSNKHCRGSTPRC
Put plainly: Inhibition of the human recombinant type II PLA2 (synovial PLA2), in vitro. Type of experiment: biochemical. From the text:
a) Inhibition of the human recombinant type II PLA2) (=synovial PLA2)
As typical respresentative of A PLA2, there was selected for the testing the synovial PLA2 (dissertation of Rainer Muller, 1993; University of Regensburg).
As representative of the compounds I or Ia, respectively, there was investigated in more detail the compound from Example 1. In the following Table, there is given dosage-dependent the percentage in vitro inhibition of PLA2.

The subject of experiment [2] is collagen-induced arachidonic acid (AA) liberation from human thrombocytes. The experiment in a line: Inhibition of the collagen-induced arachidonic acid (AA) liberation from human thrombocytes (3H-AA). The class given is cell-based. As to the method: b) Inhibition of the collagen-induced arachidonic acid
(AA) liberation from human thrombocytes
As further indicator of a PLA2 inhibition, there is valid an inhibition of the AA liberation from thrombocytes. For this purpose, the thrombocytes are equilibrated with ^3 H-AA. This added radioactive arachidonic acid incorporates into membrane phospholipids. Subsequently, the thrombocytary PLA2 is activated via the collagen receptor and ^3 H-AA thus again liberated from the membrane phospholipids into the medium where it can be measured.

`Nc1nc2ccccc2[n+]([O-])n1` [Example 1, 1,2,4-Benzotriazine-3-amine 1-oxide]: the inhibition at 1 µg/mL in experiment [1] (1 μg/ml) was 43%. In addition, the inhibition at 10 µg/mL in experiment [1] (10 μg/ml) was 60%; in experiment [2] (10 μg/ml, collagen-induced, human thrombocytes), 29%. In addition, the inhibition at 100 µg/mL amounted to 99% in experiment [1] (100 μg/ml) and 91% in experiment [2] (100 μg/ml, collagen-induced, human thrombocytes). For the same molecule, the “inhibition of the collagen-induced AA liberation, maximum” value in experiment [2] (dosage-dependent) was “up to 91%”.

These data come from US5856325A, “Benzotriazines, pharmaceutical compositions, and methods of using same” (Boehringer Mannheim GmbH, priority 1992, dated 1999).
